This passage reports IC50 results from BindingDB's records for patent US10227350 (Gilead Sciences, 2019).

Broadly, the IC50 is the concentration that inhibits the measured activity by half. The low end stands for greater potency, the high end for weaker potency.

In this assay the target is Phosphatidylinositol 4,5-bisphosphate 3-kinase catalytic subunit beta isoform (Homo sapiens, UniProt P42338). Nature of the assay: TR-FRET Assay. On the procedure:
Class I PI3K isoforms were expressed and purified as heterodimeric recombinant proteins. All assay reagents and buffers for the TR-FRET assay were purchased from Millipore. […] The compounds were added to the assay solution and incubated for 30 minutes at 25° C.

Chain of Phosphatidylinositol 4,5-bisphosphate 3-kinase catalytic subunit beta isoform (P42338 whole entry, canonical isoform): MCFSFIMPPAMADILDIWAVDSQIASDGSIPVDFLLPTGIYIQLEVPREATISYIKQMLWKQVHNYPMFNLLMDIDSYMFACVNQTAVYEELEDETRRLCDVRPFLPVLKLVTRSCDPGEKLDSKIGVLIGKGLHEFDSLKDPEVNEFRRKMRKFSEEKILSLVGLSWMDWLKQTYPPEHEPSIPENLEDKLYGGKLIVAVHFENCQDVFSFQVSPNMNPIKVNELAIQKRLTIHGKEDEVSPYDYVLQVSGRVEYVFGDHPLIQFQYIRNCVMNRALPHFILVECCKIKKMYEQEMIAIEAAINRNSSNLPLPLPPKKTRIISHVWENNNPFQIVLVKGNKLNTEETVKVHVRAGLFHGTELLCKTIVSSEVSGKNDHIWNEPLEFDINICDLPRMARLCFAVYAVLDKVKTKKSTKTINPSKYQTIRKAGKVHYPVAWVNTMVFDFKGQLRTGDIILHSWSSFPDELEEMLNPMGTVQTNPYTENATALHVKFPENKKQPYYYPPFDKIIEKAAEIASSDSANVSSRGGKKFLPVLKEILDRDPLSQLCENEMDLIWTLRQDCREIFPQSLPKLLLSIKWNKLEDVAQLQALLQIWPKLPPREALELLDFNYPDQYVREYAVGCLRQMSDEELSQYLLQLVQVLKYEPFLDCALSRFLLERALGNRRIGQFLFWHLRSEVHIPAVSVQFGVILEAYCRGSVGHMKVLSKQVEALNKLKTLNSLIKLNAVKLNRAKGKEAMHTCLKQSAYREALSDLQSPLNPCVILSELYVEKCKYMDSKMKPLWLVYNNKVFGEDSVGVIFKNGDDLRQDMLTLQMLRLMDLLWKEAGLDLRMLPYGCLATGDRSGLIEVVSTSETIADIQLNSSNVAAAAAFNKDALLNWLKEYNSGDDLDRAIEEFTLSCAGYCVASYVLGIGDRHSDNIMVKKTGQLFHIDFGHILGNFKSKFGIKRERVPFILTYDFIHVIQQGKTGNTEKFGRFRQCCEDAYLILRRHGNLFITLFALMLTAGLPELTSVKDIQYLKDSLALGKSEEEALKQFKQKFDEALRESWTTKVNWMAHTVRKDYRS

In turn, `CCCc1nc2c(-c3nnc[nH]3)cc(-c3ccnc(N)c3F)cc2n1-c1ccnc2c(Cl)ccc(F)c12` [US10227350, Compound 84] gave an IC50 of 4 nM.

In the case of `Cc1cc(-c2cc(-c3nnc[nH]3)c3nc(C)n(-c4ccnc5c(Cl)cccc45)c3c2)ccn1` [US10227350, Compound 40], the IC50 stood at 5 nM.
